US8765465B2, “Efficient production and use of highly cardiogenic progenitors and cardiomyocytes from embryonic and induced pluripotent stem cells” (Kyoto University, priority 2008, dated 2014)

Experiments:
[1] = system: Flk1+ mesoderm cells from EMG7 mouse ES cells; experiment: Cardiomyocyte induction from ES cell-derived Flk1+ mesoderm cells on OP9 (experiment 1); type: cell-based; details: added to Flk1+ cells
Flk1+ cells = experiment: Mesoderm-specific treatment Flk-d0-2, cardiomyocytes at Flk-d6 (experiment 5); type: cell-based, mouse; details: added only Flk-d0-2
Text: Beating colonies started to be observed by Flk-d4. […] Experiment 1: differentiation from mesoderm to cardiomyocytes. […] Experiment 2: differentiation from undifferentiated ES cells to mesoderm. […] Experiment 3: differentiation from mesoderm to cardiac progenitors. […] Experiment 4: differentiation from cardiac progenitors to cardiomyocytes.
Medium was replaced every 2 days.

How did the “effect on cardiomyocyte induction (cTnT staining)” value [1] turn out when 11R-VIVIT was run?
The value was “no significant effect”.

For `C=CC[C@@H]1/C=C(\C)C[C@H](C)C[C@H](OC)[C@H]2O[C@@](O)(C(=O)C(=O)N3CCCC[C@H]3C(=O)O[C@H](/C(C)=C/[C@@H]3CC[C@@H](O)[C@H](OC)C3)[C@H](C)[C@@H](O)CC1=O)[C@H](C)C[C@@H]2OC` [FK506], which “effect on cardiomyocyte induction (cTnT staining)” value [1] is on record?
Its value is “no significant effect”.

With TGF-β as the molecule, how does the “cardiomyocytes at Flk-d6 after mesoderm-specific addition” value (“cardiomyocytes at Flk-d6” for short) (Flk1+ cells) read?
The value was “significant decrease”.

B1: wnt3a: factor from R&D Systems (protein, UniProt P56704 19-352, looked up)
Protein Wnt-3a: SYPIWWSLAVGPQYSSLGSQPILCASIPGLVPKQLRFCRNYVEIMPSVAEGIKIGIQECQHQFRGRRWNCTTVHDSLAIFGPVLDKATRESAFVHAIASAGVAFAVTRSCAEGTAAICGCSSRHQGSPGKGWKWGGCSEDIEFGGMVSREFADARENRPDARSAMNRHNNEAGRQAIASHMHLKCKCHGLSGSCEVKTCWWSQPDFRAIGDFLKDKYDSASEMVVEKHRESRGWVETLRPRYTYFKVPTERDLVYYEASPNFCEPNPETGSFGTRDRTCNVSSHGIDGCDLLCCGRGHNARAERRREKCRCVFHWCCYVSCQECTRVYDVHTCK
B1 was tested. Which “cardiomyocytes at Flk-d6” value (Flk1+ cells) did it give?
Its value is “significant decrease”.

B2: Dkk1: factor from R&D Systems (protein, UniProt O94907 32-266, looked up)
Dickkopf-related protein 1: TLNSVLNSNAIKNLPPPLGGAAGHPGSAVSAAPGILYPGGNKYQTIDNYQPYPCAEDEECGTDEYCASPTRGGDAGVQICLACRKRRKRCMRHAMCCPGNYCKNGICVSSDQNHFRGEIEETITESFGNDHSTLDGYSRRTTLSSKMYHTKGQEGSVCLRSSDCASGLCCARHFWSKICKPVLKEGQVCTKHRRKGSHGLEIFQRCYCGEGLSCRIQKDHHQASNSSRLHTCQRH
For B2, which “cardiomyocytes at Flk-d6” value (Flk1+ cells) is on record?
Its value is “significantly increased”.

What about the “effect on cardiomyocytes relative to that of CSA” value (Flk1+ cells) of the same molecule?
Its value is “much weaker”.
